Where “and” joins values, the source holds several entries; their conditions need not be identical. Equal values may be shown once. Entries after “also recorded” stand apart in the source; their conditions may differ.
What was measured:
Sheep MCC = assay: Mucociliary clearance (MCC) studies in sheep; format: in vivo; conditions: for AUC (% CI × h) / Initial Slope (4.0-4.5 h): MCC at 4 h post-dose
Experimental: The animal model that has been used most often to measure changes in MCC is the sheep model. The effect of compounds for enhancing mucociliary clearance (MCC) can be measured using an in vivo model described by Sabater et al., Journal of Applied Physiology, 1999, pp. 2191-2196, incorporated herein by reference.
(§1) In these studies, adult sheep were restrained and nasally intubated with an endotracheal tube. Aerosolized test articles were administered over 10-15 minutes to sheep. Radiolabeled ^99mTc-sulfur colloid (TSC, 3.1 mg/mL; containing approximately 20 mCi) was then administered at a specified time four or eight hours after test article. The radiolabeled aerosol was administered through the endotracheal tube for about 5 minutes. The sheep were then extubated, and total radioactive counts in the lung were measured every 5 minutes for a 1-hour observation period. The rate of radiolabel clearance from the lung is representative of the MCC rate in the animal. The advantage of this system is that it closely simulates the human lung environment. The model also allows for the collection of simultaneous PK/PD information through plasma and urine sampling over the test period. There are also several techniques to measure the drug concentrations on the airway surface during the MCC measurements. These include the collection of exhaled breath condensates or a filter paper method to obtain ASL via bronchoscopy.
The ovine model described above was used to evaluate the in vivo effects (efficacy/durability) of aerosol-delivered test agent on MCC. Treatments consisting of either 4 mL of test agent or test agent in combination with HS were tested. To determine if combining HS with test agent enhanced MCC, HS was administered immediately following test agent administration. Test solutions were aerosolized using a Raindrop nebulizer at a flowrate of eight liters per minute and connected to a dosimetry system consisting of a solenoid valve and a source of compressed air (20 psi). The deposited dose of drug in sheep lungs after an aerosol administration using the Raindrop nebulizer is estimated to be 8-15% of the dose. Using a Raindrop nebulizer, radiolabeled TSC was administered over approximately 3 minutes either 4 or 8 hours after drug treatment to evaluate efficacy/durability. Radioactive counts were measured in a central region in the right lung at 5 min intervals for one hour with a gamma camera. Three methods of analysis were utilized, 1) initial rate of clearance (slope) over the first 30 min fitted using linear regression 2) area under the curve for % clearance over time over one hour, and 3) the maximum clearance obtained in one hour.

[1] = tested on: human bronchial epithelial (HBE) cells; assay: Airway surface liquid drug clearance and metabolism by human airway epithelium; format: in vitro ADME
Experimental: The disappearance of 33 from the apical surface and airway epithelial metabolism were assessed in human bronchial epithelial (HBE) cells (Table 3). In these experiments 25 μL of a 25 μM solution of ENaC blocker was added to the apical surface of HBE cells grown at an air/liquid interface, and the drug and metabolite concentration in the apical and basolateral compartment was measured over 2 h by UPLC.
Therefore, the compounds of formula (I) have a longer half-life on mucosal surfaces compared to these know compounds as evidenced by the data shown in Table G. The disappearance of Compound 33 from the apical surface and airway epithelial metabolism were assessed in HBE and compared to Comparative Example 1 (Table H). In these experiments 25 μL of a 25 μM solution of ENaC blocker was added to the apical surface of HBE cells grown at an air/liquid interface, and the drug concentration in the apical and basolateral compartment was measured over 2 h by UPLC.

[2] = Plasma potassium levels in sheep of the MCC study; format: in vivo
Experimental: as §1
The compound of Comparative Example 1 can be seen on page 15 of US 2005/0080093 and as Compound 2 on page 90 of WO 2008/031048, and as Compound 2 on pages 42-43 of WO 2008/031028. […] In order to evaluate this potential, it is beneficial to have MCC activity in vivo and not cause elevation of plasma potassium at the useful dose. One model to assess this is the sheep MCC model described below.

[3] = sheep, solution concentration given beside the dose
[4] = HBE cells at air/liquid interface, 25 μL of 25 μM apical, mean ± SD
[5] = HBE cells, 25 μL of 25 μM apical, parent only

SMILES: N=C(NCCCCc1ccc(OC[C@H](N)C(N)=O)cc1)NC(=O)c1nc(Cl)c(N)nc1N [Comparative Example 1, (S)-3,5-diamino-6-chloro-N—(N-(4-(4-(2,3-diamino-3-oxopropoxy)phenyl)butyl)carbamimidoyl)pyrazine-2-carboxamide]
- ED50 (Sheep MCC; Ovis aries, using slope, AUC and Maximum Clearance, read-out: ED50 in the sheep MCC model): ~0.24 µmol/kg
- ED50 in the sheep MCC model (solution concentration) (Sheep MCC; approximate ED50 dose as concentration of dosing solution): ~3000 µM
- AUC (% CI × h) (Sheep MCC; sheep, 24 nmol/kg (300 μM)): 6.9 ± 1.0 (3) % CI × h
- Initial Slope (4.0-4.5 h) (Sheep MCC; sheep, 24 nmol/kg (300 μM)): 14.5 ± 1.3 (3)
- AUC (% CI × h) (Sheep MCC; sheep, 240 nmol/kg (3 mM)): 14.1 ± 2.2 (6) % CI × h
- Initial Slope (4.0-4.5 h) (Sheep MCC; sheep, 240 nmol/kg (3 mM)): 32.2 ± 7.3 (6)
- MCC Highest Submaximal Dose (Sheep MCC; [3]): 240 nmol/kg (3 mM)
- Therapeutic Ratio (Benefit/Risk) (Sheep MCC; sheep, top dose without plasma potassium elevation vs MCC highest submaximal dose): 0.1
- % of Apical Mass as Metabolites (2 h) [1, 4]: 83% and 83.0 ± 3.5%
- % on Basolateral Side as Metabolites (2 h) [1, 4]: 94.7 ± 1.0%
- % of Initial Apical Mass on Basolateral Side as Parent (2 h) [1, 5]: (1% Parent)
- % of Initial Drug Mass on Apical Side as Parent (2 h) [1, 5]: (8% Parent)
- fate on the apical side after 2 h incubation ([1]; HBE cells, apical surface, 37° C.): eliminated from the apical side
- effect on plasma potassium ([2]; sheep of the MCC study, at efficacious dose): causes a rise in plasma potassium; also recorded: elevations of plasma K
- Top Dose in Sheep with no Elevation of Plasma Potassium [2, 3]: 24 nmol/kg (300 μM)
